According to patent US8129547B2, “Anticoagulation of human blood ex vivo” (priority 2006, dated 2012):
Structures can show the parent of a compound that is named as a salt.

Columns and labels:
Factor XIa = molecular target: T1, Factor XIa (Homo sapiens, UniProt P03951); assay: Determination of Ki values, chromogenic substrate, Dixon evaluation: Factor XIa; assay type: biochemical; settings: 25° C., tris buffer pH 8.0, substrate H-D-Lys(Cbo)-Pro-Arg-pNA
T1 construct: purchased Haemochrom Diagnostica GmbH (Essen, D)
Source text: (§1) The inhibitors used here are the commercially available exemplary inhibitors Pefabloc tPA/Xa (2,7-bis(4-amidinobenzylidene)-cyclopeptanone-(1), Pentapharm Ltd. Basel, Switzerland), CJ-FXa (benzylsulphonyl-D-arginyl-glycyl-4-amidinobenzylamide, Haemochrom GmbH, Essen, Germany) and CJ-PK (benzylsulphonyl-D-seryl-carbobenzoxylsyl-4-amidinobenzylamide, Haemochrom GmbH, Essen, Germany). Research samples were available of DX-9065a ((+)-(2S)-2-[4-[[3S)-1-acetimidoyl-3-pyrrodinyl]oxy]phenyl]-3-[7-amidino-2-naphthyl]propanic acid, Daiichi Pharmaceutical Company Ltd., Tokyo, Japan), and Otamixaban (2-(R)-(3-carbamimidoylbenyzyl)-3-(R)-[4-(1-oxypyridin-4-yl)benzoylamino]-butyric acid-methylester, Sanofi-Aventis GmbH, Frankfurt, Germany), both of which are undergoing clinical tests. In order to examine the inhibitory action of these exemplarily used inhibitors on the blood coagulation factors plasma-kallikrein, VIIa, Xa, XIa and XIIa, the Ki values of the respective enzyme-inhibitor complexes were determined.
(§2) The enzymes were produced by Haemochrom Diagnostica GmbH (Essen, D) and were dissolved in 0.154 mol/l NaCl. The substrates (Pentapharm AG, Basel, CH) were dissolved in H2O and the inhibitor was dissolved in the above-mentioned tris buffer. The following substrates were used for the individual enzymes:
(§3) 200 μl of inhibitor solution were mixed with 25 μl of substrate for the determination and the reaction was started by the addition of 50 μl of enzyme. After a reaction time of 3-5 mins. 25 μl of acetic acid (50%) were added and the extinction was measured at 405 nm with a microplate reader (iEMS Reader MF 12401, Labsystems, Helsinki, Finland). The evaluation was carried out graphically according to Dixon (Biochem. J., 55, 170, 1953).
(§4) The enzymes were produced by Haemochrom Diagnostica GmbH (Essen, D), and only thrombin was manufactured in our own laboratory according to Walsmann (Pharmazie 23, 401-402, 1968). All the enzymes were dissolved in 0.154 mol/l NaCl. The substrates (Pentapharm AG, Basel, CH) were dissolved in H2O and the inhibitor was dissolved in the above-mentioned tris buffer. The following substrates were used for the individual enzymes:
as §3, with “1401,” for “12401,”

Factor XIIa = molecular target: T2, Factor XIIa (Homo sapiens, UniProt P00748); assay: Determination of Ki values, chromogenic substrate, Dixon evaluation: Factor XIIa; assay type: biochemical; settings: 25° C., tris buffer pH 8.0, substrate H-D-HHT-Gly-Arg-pNA
T2 construct: purchased Haemochrom Diagnostica GmbH (Essen, D)
T2 sequence (P00748 373-615 limits assumed): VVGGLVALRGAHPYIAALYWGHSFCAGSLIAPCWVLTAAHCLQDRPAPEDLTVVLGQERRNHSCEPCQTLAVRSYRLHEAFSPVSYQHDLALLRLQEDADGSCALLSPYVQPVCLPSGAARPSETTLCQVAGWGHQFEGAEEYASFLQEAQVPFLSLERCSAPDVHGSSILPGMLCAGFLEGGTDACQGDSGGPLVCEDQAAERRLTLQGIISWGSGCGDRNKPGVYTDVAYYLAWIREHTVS
Source text: as §1, §2, §3, §4
as §3, with “1401,” for “12401,”

Factor VIIa = molecular target: T3, Factor VIIa (Homo sapiens, UniProt P08709); assay: Determination of Ki values, chromogenic substrate, Dixon evaluation: Factor VIIa; assay type: biochemical; settings: 25° C., tris buffer pH 8.0, substrate CH3SO2-D-phe-Gly-Arg-pNA
T3 construct: purchased Haemochrom Diagnostica GmbH (Essen, D)
T3 sequence (P08709 213-466 limits assumed): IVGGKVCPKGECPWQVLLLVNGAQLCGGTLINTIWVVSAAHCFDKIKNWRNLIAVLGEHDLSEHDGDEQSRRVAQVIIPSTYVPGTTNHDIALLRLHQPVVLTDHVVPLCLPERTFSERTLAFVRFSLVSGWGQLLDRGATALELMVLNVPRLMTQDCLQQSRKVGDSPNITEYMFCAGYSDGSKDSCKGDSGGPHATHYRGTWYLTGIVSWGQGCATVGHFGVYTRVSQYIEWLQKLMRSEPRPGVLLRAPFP
T3 sequence (P08709 61-212 partner limits assumed): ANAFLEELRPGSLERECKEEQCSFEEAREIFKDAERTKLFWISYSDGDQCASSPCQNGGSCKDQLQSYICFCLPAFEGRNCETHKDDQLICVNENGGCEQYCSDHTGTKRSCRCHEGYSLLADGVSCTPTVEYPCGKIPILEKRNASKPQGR
Source text: as §1, §2, §3, §4
as §3, with “1401,” for “12401,”

Plasma-kallikrein = molecular target: T4, Plasma-kallikrein (Homo sapiens, UniProt P03952); assay: Determination of Ki values, chromogenic substrate, Dixon evaluation: plasma-kallikrein; assay type: biochemical; settings: 25° C., tris buffer pH 8.0, substrate Bz-Pro-Phe-Arg-pNA; read-out: Ki PK (plasma-kallikrein)
T4 construct: purchased Haemochrom Diagnostica GmbH (Essen, D)
Source text: In a particularly preferred embodiment the compound according to Formula (I) inhibits not only the blood coagulation factor XA but also thrombin and/or plasma kallikrein. […] Here too the Ki value stands for the dissociation constant of the respective enzyme-inhibitor complex. The determination of the Ki values of the inhibitors vis-a-vis thrombin and plasma kallikrein is preferably carried out in a similar manner to the determination, described above, of the Ki values of the inhibitors vis-a-vis the coagulation factor Xa, but in this case CH3SO2-D-HHT-gly-arg-pNA (with HHT=hexahydrothyrosin, and pNA=para-nitroaniline; sold under the commercial name Pefachrome tPA) are used as substrates in the case of thrombin and bz-pro-phe-arg-pNA (with bz=[…], and pNA=para-nitroaniline; sold under the commercial name Chromozym PK) in the case of plasma-kallikrein.
as §1, §2, §3, §4
as §3, with “1401,” for “12401,”

human vein blood = assay: Storage of human vein blood after anticoagulation with inhibitor (F1+2 immunoassay)
Description: In the sense of the invention anticoagulation means that the re-formation of thrombin is inhibited in the sampled blood. According to the invention thrombin re-formation is inhibited when no more than 1 nM of thrombin is re-formed in the sampled blood. As described above, the activation of prothrombin to thrombin represents an essential step in the blood coagulation cascade. In this case the prothrombin fragment 1+2 (F1+2) is released in equivalent quantities. It is therefore possible to quantify the thrombin actually formed by determining the fragment produced, thus enabling the prothrombin fragment F1+2 to be used as an indirect marker of an activation of prothrombin to thrombin. The concentration of the prothrombin fragment F1+2 formed may be determined immunologically, for example, with commercial enzyme immunoassays (for example Enzygnost F1+2 micro, Dade Behring GmbH, Marburg).
According to the invention anticoagulation therefore means that no more than 1 nM of prothrombin fragment F1+2 is newly formed in the blood after its sampling. […] Without suitable treatment of the blood to prevent coagulation there is an increase in the concentration of the prothrombin fragment F1+2 in this example to well over 1.3 nM, within a few minutes, due to the plasmatic coagulation, i.e. the blood coagulates.
In this experiment it was determined how long human vein blood can be stored without the formation of thrombin or activation of thrombocytes.
For this purpose blood (9 parts) sampled from a patient was mixed with inhibitor solution (0.05 mM, 0.5 mM or 5 mM in physiological NaCl solution; 1 part). Some of the blood was stored at 25° C., the remainder in the refrigerator at 4° C. The quantity of thrombin formed was determined immunologically during storage based on the formation of the prothrombin fragment F1+2 (Enzygnost F1+2 micro, Dade Behring GmbH, Marburg). […] In this case it is irrelevant whether the blood samples were kept at room temperature (approx. 25° C.) or at 4° C.
For this purpose blood (9 parts) sampled from a patient was mixed with inhibitor solution (0.05 mM, 0.5 mM or 5 mM in physiological NaCl solution; 1 part) and stored at room temperature (about 22±2° C.). The quantity of thrombin formed was determined immunologically during storage based on the formation of the prothrombin fragment F1+2 (Enzygnost F1+2 micro, Dade Behring GmbH, Marburg). It was shown that BAPA′ is capable of keeping anticoagulated blood uncoagulated at a concentration in the blood of 500 μM or 50 μM for more than 48 hours (Table 4). At a concentration of 5 μM BAPA′ prevents coagulation for more than 8 hours.

Factor Xa = molecular target: T5, Factor Xa (Homo sapiens, UniProt P00742); assay: Determination of Ki values, chromogenic substrate, Dixon evaluation: Factor Xa; assay type: biochemical; settings: 25° C., tris buffer pH 8.0, substrate CH3OCO-D-Cha-Gly-Arg-pNA
T5 construct: purchased Haemochrom Diagnostica GmbH (Essen, D)

thrombocytes [1] = assay: Induced aggregation of thrombocytes (Born in PRP, impedance full blood aggregometry) after anticoagulation, Example 4; assay type: cell-based, human; settings: 24 hours after sampling; ADP, collagen, arachidonic acid
Description: (§5) For this purpose blood was taken within 1 hour from 12 healthy subjects. 1 aliquot of each of the 12 blood samples was anticoagulated with citrate and 1 other aliquot of the 12 blood samples was anticoagulated with a direct inhibitor of the blood coagulation factor Xa. For this purpose 9 parts of blood were mixed with 1 part of citrate (0.106 mol/l) or 1 part of inhibitor solution in a suitable concentration. Platelet-rich plasma (PRP) was manufactured by centrifuging at 164×g over 10 minutes. The thrombocytes in PRP were activated by induced aggregation according to Born with 5 μmols/l of ADP, 2 μg/ml of collagen and 0.5 mmol/l of arachidonic acid. Impedance full blood aggregometry was carried out with the Multiplate aggregometer and with 6.5 μmols/l of ADP, 3.2 μg/ml of collagen and 0.5 mmol/l of arachidonic acid. The analyses were conducted 1, 2, 3, 4, 5, 10 and 24 hours after blood sampling.

thrombocytes [2] = assay: Thrombocyte propagation on plastic object carriers, Example 4; assay type: cell-based, human; settings: PRP, 24 hours after blood sampling
Description: as §5
On the contrary, less than 10% of the thrombocytes in RPR anticoagulated with citrate were still propagated 24 hours after blood sampling.

thrombin formation = assay: Inhibition of thrombin formation (prothrombin fragment F1+2) in hirudin-anticoagulated plasma after activation by kaolin; assay type: biochemical, human; settings: inhibitor 100 μM, 37° C.
Description: In this example thrombin formation was activated in plasma anticoagulated with hirudin by the addition of kaolin and the ability of the inhibitors to inhibit thrombin formation was examined.
Blood sampled from a patient was initially anticoagulated by means of the thrombin inhibitor hirudin. For this purpose 9 parts of blood were mixed with 1 part of hirudin solution (recombinant hirudin HBW 023, Hoechst, Frankfurt, 2000 E/ml of physiological NaCl solution), then centrifuged for 10 minutes at 1300 revolutions per minute (rpm). 900 μl of the plasma anticoagulated with hirudin, present in excess, were mixed in polypropylene tubes with 50 μl of inhibitor solution or 0.9% NaCl solution and 50 μl kaolin suspension (from APTT-Test from Roche Diagnostics, diluted 1:250 before use with physiological NaCl solution), and incubated at 37° C. with light shaking. In this case kaolin acts as a non-physiological surface which activates the blood coagulation thereby finally stimulating thrombin formation. At certain times the quantity of the thrombin formed was determined immunologically on the basis of the formation of the prothrombin fragment F1+2 (Enzygnost F1+2 micro, Dade Behring GmbH, Marburg). This determination is based on an enzyme immunoassay according to the sandwich principle. For this purpose aliquot volumes (600 μl) were anticoagulated at certain times with 0.1 M EDTA (40 μl) and kept at −20° C. To determine the concentration of the prothrombin fragment F1+2 50 μl of plasma (if necessary diluted with PBS, phosphate-buffered saline) were incubated with monoclonal antibodies against the human prothrombin fragment F1+2, which were fixed on a microtitre plate included in the test kit. After a washing stage with PBS, which was used to remove sample material not bound by the antibodies, antibodies conjugated with peroxidase were incubated against human prothrombin binding to the free F1+2 determinants. […] This was then determined photometrically at a wavelength of 492 nm. […]

[3] = 25° C., concentration in the blood 50 μM
[4] = 25° C., concentration in the blood 500 μM

T1 sequence (P03951 388-625 limits assumed): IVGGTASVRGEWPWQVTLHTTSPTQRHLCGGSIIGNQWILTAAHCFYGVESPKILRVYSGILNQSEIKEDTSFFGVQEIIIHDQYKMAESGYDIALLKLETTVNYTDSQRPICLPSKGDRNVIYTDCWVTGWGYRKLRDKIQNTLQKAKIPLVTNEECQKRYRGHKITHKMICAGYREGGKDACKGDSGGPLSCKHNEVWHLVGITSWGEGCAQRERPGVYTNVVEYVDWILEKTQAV
T1 sequence (P03951 19-387 partner limits assumed): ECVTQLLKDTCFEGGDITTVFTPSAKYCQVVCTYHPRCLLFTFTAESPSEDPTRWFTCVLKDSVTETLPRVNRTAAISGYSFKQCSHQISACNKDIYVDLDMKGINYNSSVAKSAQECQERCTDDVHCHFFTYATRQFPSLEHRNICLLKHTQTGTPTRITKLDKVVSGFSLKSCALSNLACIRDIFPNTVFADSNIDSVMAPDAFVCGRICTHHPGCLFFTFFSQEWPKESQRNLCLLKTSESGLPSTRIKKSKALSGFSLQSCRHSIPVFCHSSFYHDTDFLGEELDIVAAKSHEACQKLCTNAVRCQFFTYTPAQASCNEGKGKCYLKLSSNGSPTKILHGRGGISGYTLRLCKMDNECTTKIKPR
T4 sequence (P03952 391-638 limits assumed): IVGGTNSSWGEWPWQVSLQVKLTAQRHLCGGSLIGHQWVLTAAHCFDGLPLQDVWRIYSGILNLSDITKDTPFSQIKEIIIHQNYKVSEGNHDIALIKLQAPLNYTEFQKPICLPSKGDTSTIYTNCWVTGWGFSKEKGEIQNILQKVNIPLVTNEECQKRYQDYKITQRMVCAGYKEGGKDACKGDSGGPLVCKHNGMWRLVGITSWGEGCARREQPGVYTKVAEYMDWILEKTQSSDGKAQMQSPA
T4 sequence (P03952 20-390 partner limits assumed): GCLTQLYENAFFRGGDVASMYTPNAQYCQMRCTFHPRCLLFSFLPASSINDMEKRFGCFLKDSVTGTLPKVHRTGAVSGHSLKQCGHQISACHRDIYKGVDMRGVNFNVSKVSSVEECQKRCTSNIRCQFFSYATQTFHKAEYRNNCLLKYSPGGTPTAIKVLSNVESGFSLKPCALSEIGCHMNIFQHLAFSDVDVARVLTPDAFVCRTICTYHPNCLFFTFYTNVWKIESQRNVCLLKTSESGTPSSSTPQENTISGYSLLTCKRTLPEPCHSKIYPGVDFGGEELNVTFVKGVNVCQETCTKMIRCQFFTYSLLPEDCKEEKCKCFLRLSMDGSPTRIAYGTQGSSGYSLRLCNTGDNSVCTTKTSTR
T5 sequence (P00742 235-488 limits assumed): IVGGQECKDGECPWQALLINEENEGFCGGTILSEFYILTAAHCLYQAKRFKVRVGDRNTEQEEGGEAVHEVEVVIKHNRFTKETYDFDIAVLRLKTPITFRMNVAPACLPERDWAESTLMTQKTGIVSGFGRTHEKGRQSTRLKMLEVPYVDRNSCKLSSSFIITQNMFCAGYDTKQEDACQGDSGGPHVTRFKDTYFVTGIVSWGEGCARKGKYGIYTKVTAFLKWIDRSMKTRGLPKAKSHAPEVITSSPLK
T5 sequence (P00742 41-179 partner limits assumed): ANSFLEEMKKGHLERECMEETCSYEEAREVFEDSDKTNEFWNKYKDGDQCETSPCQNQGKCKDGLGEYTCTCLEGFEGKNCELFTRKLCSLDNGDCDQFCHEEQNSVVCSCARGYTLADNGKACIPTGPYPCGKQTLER

| Compound | Ki (Factor XIa) [nM] | Ki (Factor XIIa) [nM] | Ki (Factor VIIa) [nM] | Ki (Plasma-kallikrein) [nM] | Anticoagulation time (human vein blood; 4° C., concentration in the blood 500 μM) [h] | Anticoagulation time (human vein blood; [3]) | Anticoagulation time (human vein blood; 25° C., concentration in the blood 50 μM, listed as CJ-Fxa) [h] | Anticoagulation time (human vein blood; [4]) [h] | Ki (Factor Xa) [nM] | induced aggregation relative to the initial value (thrombocytes [1]) | thrombocytes showing normal propagation on plastic object carriers (thrombocytes [2]) | suppression of thrombin formation after kaolin activation (thrombin formation) |
| --- | --- | --- | --- | --- | --- | --- | --- | --- | --- | --- | --- | --- |
| N=C(N)NCCC[C@@H](NS(=O)(=O)Cc1ccccc1)C(=O)N1CCC[C@H]1C(=O)NCc1ccc(C(=N)N)cc1 [BAPA′, benzylsulphonyl-D-arginyl-prolyl-4-amidinobenzylamide] | 27 | 130 | 830 |  |  |  |  |  |  |  |  |  |
| N=C(N)NCCC[C@@H](NS(=O)(=O)Cc1ccccc1)C(=O)NCC(=O)NCc1ccc(C(=N)N)cc1 [CJ-FXa, benzylsulphonyl-D-arginyl-glycyl-4-amidinobenzylamide] | 800 | 350 | 9600 | 84 | >48 | approx. 24 h | 12 to 24 | >48 | 3.5 |  |  |  |
| CC(=N)N1CC[C@H](Oc2ccc([C@H](Cc3ccc4ccc(C(=N)N)cc4c3)C(=O)O)cc2)C1 [DX-9065a] | 2300 | 340 | 92000 | 530 |  | 5 to 7 h |  | 7 to 12 |  |  |  |  |
| O=C(O)CC(O)(CC(=O)O)C(=O)O [citrate, trisodium citrate] |  |  |  |  |  |  |  |  |  | 20 to 30 % of the initial value | less than 10% |  |
| benzylsulphonyl-D-seryl-carbobenzoxylsyl-4-amidinobenzylamide [CJ-PK] | 250 | 12000 | 3800 | 3.5 |  |  |  |  | 2900 |  |  | suppress thrombin formation effectively |
